Results taken from patent US20250002969A1, “DISCRIMINATION OF ANTIBIOTIC RESISTANT AND SENSITIVE SAMPLES” (priority 2021, published 2025).

Assays:
[1] = test system: S. aureus clinical isolates; experiment: Photoacoustic flow cytometry (PAFC) detections of clinical isolates incubated with oxacillin; format: cell-based, Staphylococcus aureus; settings: for Treated Detections: oxacillin 1 μmg/ml, 2 hours
Method: In a representative study, total of thirteen samples were tested for the mecA gene using PCR, thus determining their methicillin resistance before photoacoustic testing. Streaks of each S. aureus strain were grown on mannitol salt agar plates. Single colonies from each streak plate were used to regrow strains in mannitol salt broth for 2 hours in a shaking water bath at 36.5 C. That period ensured cells were growing and entering exponential growth phase. Oxacillin was added at a final concentration of 1 μmg/ml to half of each culture and grown for an additional 2 hours. Before processing through PAFC system, 100 μl from each culture was removed and used for growth analysis in an HI plate reader (available from Biotek of Winooski, Vermont). Growth curves were made for each culture by taking the optical density of each treated and untreated culture every minute over a 16-hour period. As described above, it was determined that two hours of antibiotic treatment was sufficient to determine differential growth rates from prior experimentation. Prior to performing photoacoustic testing, treated and untreated samples were incubated side-by-side for two hours. Photoacoustic testing of treated and untreated samples for each isolate were alternated, so that both samples were tested within twenty minutes to allow for similar growth times. Thus, total bacteria number could be compared properly.
To interpret the photoacoustic data provided by the flow cytometer, k-means clustering was used to guide the differentiation between methicillin resistant and susceptible samples. […] K-means, like other clustering methods, takes data points in a space of one or more dimensions and determines natural groupings of those points by proximity. Given a number of clusters, k, the algorithm separates all points into that number of groups. In a representative study, there was an interest in identifying only resistant and susceptible groups. Thus, k=2 was chosen.
The ratio of treated detection numbers over untreated numbers was determined, resulting in 13 numbers which were approximately in the range of 0 to 1. Lower numbers indicate that oxacillin was effective in decreasing the S. aureus population. However, there was no ad hoc threshold for determining antibiotic resistance. K-means with two clusters was applied to the data set using the MATLAB programming language (available from Math Works of Natick, Massachusetts). The MATLAB function, kmeans, uses Lloyd's algorithm. For simplicity, Euclidean distance was used for measuring and establishing iterative clusters.
Because the sample size was relatively small and the distribution was not obviously Gaussian, a nonparametric test was performed to compare the means of the bacterial counts before and after treatment with oxacillin. Using a Wilcoxon matched pairs signed rank test, a p-value of 0.0007 was calculated.
Photoacoustic Flow Cytometry. A 1000 μm optical fiber with numerical aperture of 0.39 (Thorlabs, Newton, New Jersey) was used to deliver laser light at 532 nm with a 5 ns pulse duration from a Nd:YAG laser (Litron Nano, Boseman, Montana). Laser beam energy was maintained and measured between 1.9 and 2.1/mJ for all PAFC experiments. The optical fiber was placed 5 mm away from a quartz tube (Quartz 10 QZ, Charles Supper, Natick, Massachusetts) with 10 μm thick walls. Samples were pumped through the quartz tube inside a 3D printed flow chamber. The laser beam was assumed Gaussian in shape and fluence was calculated to be 0.014 mJ/cm^2 and detection volume was determined to be 0.04 μL.

MRSA = settings: cited from earlier work
VRSA = settings: cited from earlier work
[2] = test system: Staph. aureus clinical isolates; experiment: Growth curves (optical density) of clinical isolates in presence of daptomycin; format: cell-based
Method: Growth curves of multiple clinical isolates of the representative bacteria S. aureus as illustrated in FIGS. 4A through 4D were determined using a BioTek Synergy HI plate reader (available from BioTek Instruments (of Agilent Technologies), Winooski, Vermont). S. aureus isolates growth rates were tested in the presence and absence of the representative antibiotic daptomycin. Differential growth rates were identifiable after two hours of the sixteen-hour growth curve. Two-hour differentiation was confirmed by Newton-Raphson root finding method.
(§1) Sample preparation. Clinical isolates of Staph. aureus were obtained from the Urisch laboratory at the UPMC Department of Othopaedic Surgery. Isolates were de-identified according to IRB protocol and were stored in 50% glycerol solution at −80° C. Isolates were streaked for single colonies on mannitol salt agar (MSA) plates and cultures were grown in mannitol salt broth, shaking at 36.5° C. Overnight cultures were then diluted into fresh media and regrown for 2 hours to ensure that bacteria were entering exponential growth phase. Exponentially growing cultures were mixed with media or daptomycin in a 1:1 ratio. Daptomycin was added to 0.5 ml of culture to a final concentration of 0.25 μg/ml. Identical cultures were used in all experiments using PAFC and BioTek HI plate reader. For photoacoustic testing, bacteriophage SP1 was added to a concentration of 1000 phage per bacterial cell. Growth curves were performed for 16 hours with measurements taken once every minute.
Treated and control cultures were placed in a round bottom 96 well culture plate (Falcon microtest 96 well plate 35077, ThermoFisher, Waltham, Massachusetts) and were placed into the BioTek HI plate reader. Optical density (OD) measurements were taken every minute at 600 nm wavelength. Between measurements, the plate was shaken at 100 rpm and maintained at 36.5+C allowing for bacterial growth. The two-hour time point was determined to be sufficient to differentiate the growth rates. Additionally, multiple replicates of each bacterial strain were grown at 36.5° C. in the BioTek HI plate reader and 100 μL was removed and plated on MSA plates every 10 minutes. Growth curves were made directly from these titers for each strain to give a quantifiable number of bacterial cells for each OD.

[3] = test system: Staph. aureus clinical isolates; experiment: PAFC cell count of clinical isolates in presence of daptomycin, dyed SP1 phage label; format: cell-based
Method: All strains were tested in the presence and absence of daptomycin. In a number of studies hereof, cultures were diluted into fresh media and regrown for 2 hours in the presence and absence of […] of daptomycin. Each sample was then incubated at room temperature for 10 minutes with multiple dyed phage per bacterial cell. Incubated samples were then processed through PAFC system 100 and number of detected cells recorded. Isolates were tested in triplicated for both the plate reader and PAFC system.
as §1
Photoacoustic Flow Cytometry. […] Laser beam energy was maintained and measured between 1.9 and 2.1/mJ for all PAFC experiments. […] The laser beam was assumed Gaussian in shape and fluence was calculated to be 0.014 mJ/cm^2 and detection volume was determined to be 0.04 μL.
All strains were tested in the presence and absence of daptomycin. […] Incubated samples were then processed through the PAFC system and number of detected cells recorded. Isolates were tested in triplicate for both the plate reader and PAFC system.

**Q.** For Cc1onc(-c2ccccc2)c1C(=O)N[C@@H]1C(=O)N2[C@@H]1SC(C)(C)[C@@H]2C(=O)O [oxacillin], which “Treated Detections” value ([1]; isolate B1899 (mecA Yes)) is on record?
**A.** 404

**Q.** And the “Treated Detections” value ([1]; isolate K3237 (mecA No))?
**A.** 44

**Q.** And the “Treated Detections” value ([1]; isolate K3251 (mecA No))?
**A.** 7

**Q.** What about the “Treated Detections” value ([1]; isolate K3255 (mecA No)) of the same compound?
**A.** 53

**Q.** And the “Treated Detections” value ([1]; isolate K3261 (mecA Yes))?
**A.** 135

**Q.** What about the “Treated Detections” value ([1]; isolate K3262 (mecA No)) of the same compound?
**A.** 10

**Q.** And the “Treated Detections” value ([1]; isolate K3266 (mecA No))?
**A.** 18

**Q.** What about the “Treated Detections” value ([1]; isolate K3268 (mecA Yes)) of the same compound?
**A.** 110

**Q.** And the “Treated Detections” value ([1]; isolate K3270 (mecA Yes))?
**A.** 134

**Q.** And the “Treated Detections” value ([1]; isolate K3279 (mecA Yes))?
**A.** 175

**Q.** What about the “Treated Detections” value ([1]; isolate K3280 (mecA Yes)) of the same compound?
**A.** 179

**Q.** What about the “Treated Detections” value ([1]; isolate K3282 (mecA Yes)) of the same compound?
**A.** 689

**Q.** What about the “Treated Detections” value ([1]; isolate K3287 (mecA No)) of the same compound?
**A.** 2

**Q.** And the “mean ratio of treated to untreated” value ([1]; second subgroup, markedly different growth)?
**A.** 0.10

**Q.** What about the “mean ratio of treated to untreated” value ([1]; subgroup with similar growth rates (isolates with mecA gene)) of the same compound?
**A.** 0.87

**Q.** For CCCCCCCCCC(=O)N[C@@H](Cc1c[nH]c2ccccc12)C(=O)N[C@H](CC(N)=O)C(=O)N[C@@H](CC(=O)O)C(=O)N[C@@H]1C(=O)NCC(=O)N[C@@H](CCCN)C(=O)N[C@@H](CC(=O)O)C(=O)N[C@H](C)C(=O)N[C@@H](CC(=O)O)C(=O)NCC(=O)N[C@H](CO)C(=O)N[C@@H]([C@H](C)CC(=O)O)C(=O)N[C@@H](CC(=O)c2ccccc2N)C(=O)O[C@@H]1C [daptomycin], which MIC (MRSA) is on record?
**A.** 0.25 to 1 µg/mL

**Q.** What about the MIC (VRSA) of the same compound?
**A.** > 4 µg/mL

**Q.** And the “growth (optical density) treated vs untreated” value (shortened to “growth … vs untreated”) ([2]; heterogeneous strain A, FIG. 4C)?
**A.** delay of exponential growth

**Q.** What about the “growth … vs untreated” value ([2]; heterogeneous strain B, FIG. 4D) of the same compound?
**A.** no delay in initial growth is observed but severe retardation of growth starting at 1.5 hours

**Q.** And the “growth … vs untreated” value ([2]; resistant clinical isolate, FIG. 4B, 2 h and 16 h)?
**A.** no delay or inhibition of growth

**Q.** What about the “growth … vs untreated” value ([2]; susceptible clinical isolate, FIG. 4A, 2 h and 16 h) of the same compound?
**A.** complete inhibition of growth

**Q.** What about the “cells detected by PAFC, treated vs untreated” value ([3]; heterogeneous resistant strains) of the same compound?
**A.** intermediary number of cells detected

**Q.** What about the “cells detected by PAFC, treated vs untreated” value ([3]; homogeneous resistant strains) of the same compound?
**A.** identical or nearly identical numbers of cells

**Q.** And the “cell count via photoacoustic detection” value ([3]; susceptible clinical isolate, FIG. 4A, two-hour timepoint)?
**A.** zero detection
